Data as given in patent US10464927B2, “2,4-disubstituted pyrimidines as CDK inhibitors” (Shanghai Xunhe Pharmaceutical Technology Co. Ltd., priority 2016, dated 2019).

What was measured:
[1] = target: CDK4 (Homo sapiens (Human), UniProt P11802); assay: CDK4 protein kinase activity, Caliper mobility shift assay; format: biochemical; conditions: GST-CDK4(1-303 end), substrate Peptide FAM-P8, 28° C. for 3 h
Experimental: (§1) activity assay: The CDK4 protein kinase activity was measured using the Caliper mobility shift assay (see J. Biomol. Screen, 2009, PP31). The test compound was dissolved in DMSO and diluted with a kinase buffer solution (20 mM HEPES-pH 7.5, 0.01% Triton X-100, 10 mM MgCl2, 2 mM DTT) and 5 μL of compound at 5-fold final concentration of reaction dissolved in 10% DMSO was added in a 384-well plate. The compound-free control well was 5 μL of 10% DMSO, and the no-activity control well was 5 μL of kinase buffer. 10 μL of a 2.5-fold diluted CDK4 enzyme solution (GST-CDK4(1-303 end)) was added and incubated at room temperature for 10 min, and then 10 μL of the 2.5-fold diluted substrate solution Peptide FAM-P8 was added. The reaction was stopped by adding 25 μL of stop solution after incubation at 28° C. for 3 h, and the conversion rate data was read on a Caliper EZ Reader II (Caliper Life Sciences) and the conversion rate was converted to inhibition rate data according to above method. Among them, the inhibition rate %=(max−conversion)/(max−min)×100%.

[2] = target: CDK6 (Homo sapiens (Human), UniProt Q00534); assay: CDK6 protein kinase activity, Caliper mobility shift assay; format: biochemical; conditions: GST-CDK6(1-326 end), substrate Peptide FAM-P8, 28° C. for 3 h
Experimental: as §1, with “Activity Assay:” for “activity assay:”, “CDK6” for “CDK4”, “(GST-CDK6(1-326” for “(GST-CDK4(1-303”

CDK6, sequence (Q00534 whole entry): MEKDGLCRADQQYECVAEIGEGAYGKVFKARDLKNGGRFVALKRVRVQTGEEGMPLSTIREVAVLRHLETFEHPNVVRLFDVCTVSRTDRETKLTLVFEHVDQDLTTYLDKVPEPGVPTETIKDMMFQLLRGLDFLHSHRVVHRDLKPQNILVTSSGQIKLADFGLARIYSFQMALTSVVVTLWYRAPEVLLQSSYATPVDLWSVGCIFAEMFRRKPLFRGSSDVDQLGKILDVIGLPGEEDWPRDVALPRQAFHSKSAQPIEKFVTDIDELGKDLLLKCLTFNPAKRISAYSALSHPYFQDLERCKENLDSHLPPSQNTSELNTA
CDK6, sequence (P30281 whole entry partner): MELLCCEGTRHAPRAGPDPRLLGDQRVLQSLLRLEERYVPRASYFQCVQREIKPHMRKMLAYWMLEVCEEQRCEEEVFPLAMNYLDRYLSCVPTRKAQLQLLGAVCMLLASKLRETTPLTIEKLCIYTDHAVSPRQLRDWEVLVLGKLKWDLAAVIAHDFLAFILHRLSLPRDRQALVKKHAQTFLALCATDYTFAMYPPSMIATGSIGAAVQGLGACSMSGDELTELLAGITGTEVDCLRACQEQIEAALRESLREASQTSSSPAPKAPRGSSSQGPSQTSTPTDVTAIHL
CDK4, sequence (P11802 whole entry): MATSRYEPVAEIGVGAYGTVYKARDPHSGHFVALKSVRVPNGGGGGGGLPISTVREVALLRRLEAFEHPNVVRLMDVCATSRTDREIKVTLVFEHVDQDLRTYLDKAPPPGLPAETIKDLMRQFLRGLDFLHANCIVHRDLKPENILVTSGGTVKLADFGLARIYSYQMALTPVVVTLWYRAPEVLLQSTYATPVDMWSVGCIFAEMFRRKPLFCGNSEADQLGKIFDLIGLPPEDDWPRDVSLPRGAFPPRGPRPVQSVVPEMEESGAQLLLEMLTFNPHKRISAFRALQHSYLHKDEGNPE
CDK4, sequence (P30281 whole entry partner): as the sequence (P30281 whole entry partner) above

| Structure (SMILES) | IC50 [1] [nM] | IC50 [2] [nM] |
| --- | --- | --- |
| CCN1CCN(c2ccc(Nc3ncc(F)c(-c4ncc5nc(C)n(C(C)C)c5n4)n3)nc2)CC1 [Compound I-48, N-(5-(4-ethylpiperazin-1-yl)-pyridin-2-yl)-5-fluoro-4-(9-isopropyl-8-methyl-9H-purin-2-yl)pyrimidin-2-amine] | ≤ 20 | 100 to 500 |
| CC(C)n1c(C2CCCC2)cc2cc(-c3nc(Nc4ccc(N5CCN(C6CCC6)CC5)cn4)ncc3F)ccc21 [Compound I-21, N-(5-(4-cyclobutylpiperazin-1-yl)-pyridin-2-yl)-5-fluoro-4-(1-isopropyl-2-cyclopentyl-1H-indol-5-yl)pyrimidin-2-amine] | ≤ 20 | 20 to 100 |
| CCN1CCN(Cc2ccc(Nc3ncc(F)c(-c4ccc5c(n4)c(C(F)(F)F)nn5C4CCCC4)n3)nc2)CC1 [Compound I-46, N-(5-(4-ethylpiperazine-1-methyl)-pyridin-2-yl)-5-fluoro-4-(1-cyclopentyl-3-trifluoromethyl-4-aza-1H-indazol-5-yl)pyrimidin-2-amine] | 20 to 100 | 20 to 100 |
| CC(C)n1c(C(=O)N(C)C)cc2c(F)c(-c3nc(Nc4ccc(N5CCNCC5)cn4)ncc3F)ccc21 [Compound I-28, N-(5-(piperazin-1-yl)-pyridin-2-yl)-5-fluoro-4-(1-isopropyl-2-formic acid diformamido-1H-4-fluoroindol-5-yl)pyrimidin-2-amine] | ≤ 20 | 20 to 100 |
| CC(=O)c1nc(C2CC2)n2cc(-c3nc(Nc4ccc(N5CCNCC5)cn4)ncc3F)cc(F)c12 [Compound I-32, N-(5-(piperazin-1-yl)-pyridin-2-yl)-5-fluoro-4-(1-acetyl-3-cyclopropyl-8-fluoro-imidazolo[1,5-a]pyridin-6-yl)pyrimidin-2-amine] | ≤ 20 | 20 to 100 |
| CC(C)n1ccc2cc(-c3nc(Nc4ccc(N5CCNCC5)cn4)ncc3F)ccc21 [Compound I-2, N-(5-(piperazin-1-yl)-pyridin-2-yl)-5-fluoro-4-(1-isopropyl-1H-indol-5-yl)pyrimidine 2-amine] | ≤ 20 | ≤ 20 |
| CC(C)n1c(C(=O)N(C)C)c(F)c2c(-c3nc(Nc4ccc(N5CCNCC5)cn4)ncc3F)ncnc21 [Compound I-10, N-(5-(piperazin-1-yl)-pyridin-2-yl)-5-fluoro-4-(5-fluoro-6-formic acid diformamido-7-isopropyl-7H-pyrrolo[2,3-d]pyrimidin-4-yl)pyrimidin-2-amine] | ≤ 20 | 20 to 100 |
| Cn1nc2nc(-c3nc(Nc4ccc(N5CCNCC5)cn4)ncc3F)ccc2c1C1CCCC1 [Compound I-12, N-(5-(piperazin-1-yl)-pyridin-2-yl)-5-fluoro-4-(2-methyl-3-cyclopentyl-2H-7-azaindazol-6-yl)pyrimidin-2-amine] | ≤ 20 | ≤ 20 |
| CCN1CCN(Cc2ccc(Nc3ncc(F)c(-c4ncnc5c4cc(C)n5C4CCCC4)n3)nc2)CC1 [Compound I-11, N-(5-(4-ethylpiperazine-1-methyl)-pyridin-2-yl)-5-fluoro-4-(6-methyl-7-cyclopentyl-7H-pyrrolo[2,3-d]pyrimidin-4-yl)pyrimidin-2-amine] | ≤ 20 | 100 to 500 |
| CN(C)C(=O)c1nn(C2CCCC2)c2ccc(-c3nc(Nc4ccc(N5CCNCC5)cn4)ncc3F)cc12 [Compound I-43, N-(5-(piperazin-1-yl)-pyridin-2-yl)-5-fluoro-4-(1-cyclopentyl-3-formic acid diformamido-1H-indazol-5-yl)pyrimidin-2-amine] | ≤ 20 | ≤ 20 |
| Cc1c2ccc(-c3nc(Nc4ccc(N5CCNCC5)cn4)ncc3F)cc2nn1C [Compound I-5, N-(5-(piperazin-1-yl)-pyridin-2-yl)-5-fluoro-4-(2,3-dimethyl-2H-indazol-6-yl)pyrimidin-2-amine] | ≤ 20 | ≤ 20 |
